# Test results reported in ChEMBL document CHEMBL5154879, “Induction of Genes Implicated in Stress Response and Autophagy by a Novel Quinolin-8-yl-nicotinamide QN523 in Pancreatic Cancer” (J Med Chem, 2022).
# System: MIA PaCa-2
# Experiment: Induction of cell cycle arrest in human MIA PaCa-2 cells assessed as accumulation of cells in G2/M phase at 0.1 uM incubated for 24 hrs by RNase/propidium iodide staining based flow cytometry analysis (reference value: 8.11%)
# Type: functional
# Conditions: not given
row,Compound,Activity
1,Nc1ccn([C@@H]2O[C@H](CO)[C@@H](O)C2(F)F)c(=O)n1 [GEMCITABINE],0.93%

# System: not listed separately
# Experiment: Cytotoxicity against human HFF-1 cells assessed as inhibition of cell growth incubated for 72 hrs by MTT assay
# Type: toxicity, cell-based
# Conditions: not given
row,Compound,IC50 at 72 h
1,Nc1ccn([C@@H]2O[C@H](CO)[C@@H](O)C2(F)F)c(=O)n1 [GEMCITABINE],14.4 µM

# System: MIA PaCa-2
# Experiment: Induction of apoptosis in human MIA PaCa-2 cells assessed as late apoptotic cells at 0.5 uM incubated for 48 hrs by Annexin V-FITC/PI staining based flow cytometry analysis (reference value: 0.8%)
# Type: functional
# Conditions: not given
row,Compound,Activity
1,Nc1ccn([C@@H]2O[C@H](CO)[C@@H](O)C2(F)F)c(=O)n1 [GEMCITABINE],2.3%

# System: MIA PaCa-2
# Experiment: Induction of apoptosis in human MIA PaCa-2 cells assessed as viable cells at 0.1 uM incubated for 24 hrs by Annexin V-FITC/PI staining based flow cytometry analysis (reference value: 90.2%)
# Type: functional
# Conditions: read-out: Activity
row,Compound,viability at 0.1 µM
1,Nc1ccn([C@@H]2O[C@H](CO)[C@@H](O)C2(F)F)c(=O)n1 [GEMCITABINE],79.1%

# System: MIA PaCa-2
# Experiment: Induction of apoptosis in human MIA PaCa-2 cells assessed as necrotic cells at 0.5 uM incubated for 24 hrs by Annexin V-FITC/PI staining based flow cytometry analysis (reference value: 2.7%)
# Type: functional
# Conditions: not given
row,Compound,Activity
1,Nc1ccn([C@@H]2O[C@H](CO)[C@@H](O)C2(F)F)c(=O)n1 [GEMCITABINE],2.4%

# System: not listed separately
# Experiment: Cytotoxicity against HEK293 cells assessed as inhibition of cell growth incubated for 72 hrs by MTT assay
# Type: toxicity, cell-based
# Conditions: human
row,Compound,IC50 at 72 h
1,Nc1ccn([C@@H]2O[C@H](CO)[C@@H](O)C2(F)F)c(=O)n1 [GEMCITABINE],0.05 µM

# System: MIA PaCa-2
# Experiment: Induction of apoptosis in human MIA PaCa-2 cells assessed as viable cells at 0.5 uM incubated for 48 hrs by Annexin V-FITC/PI staining based flow cytometry analysis (reference value: 96.3%)
# Type: functional
# Conditions: read-out: Activity
row,Compound,viability at 0.5 µM
1,Nc1ccn([C@@H]2O[C@H](CO)[C@@H](O)C2(F)F)c(=O)n1 [GEMCITABINE],90%

# System: MIA PaCa-2
# Experiment: Induction of apoptosis in human MIA PaCa-2 cells assessed as early apoptotic cells at 0.5 uM incubated for 24 hrs by Annexin V-FITC/PI staining based flow cytometry analysis (reference value: 5.1%)
# Type: functional
# Conditions: not given
row,Compound,Activity
1,Nc1ccn([C@@H]2O[C@H](CO)[C@@H](O)C2(F)F)c(=O)n1 [GEMCITABINE],7.6%

# System: MIA PaCa-2
# Experiment: Induction of cell cycle arrest in human MIA PaCa-2 cells assessed as accumulation of cells at S phase at 0.1 uM incubated for 24 hrs by RNase/propidium iodide staining based flow cytometry analysis (Rvb =27.6 %)
# Type: functional
# Conditions: not given
row,Compound,Activity
1,Nc1ccn([C@@H]2O[C@H](CO)[C@@H](O)C2(F)F)c(=O)n1 [GEMCITABINE],78.03%

# System: BXPC-3
# Experiment: Cytotoxicity against human BXPC-3 cells assessed as inhibition of cell growth incubated for 72 hrs by MTT assay
# Type: functional, cell-based
# Conditions: BXPC-3, 72 h
row,Compound,IC50
1,O=C(Nc1cccc2cccnc12)c1cccnn1,> 10 µM
2,O=C(Nc1cc(Cl)cc2cccnc12)c1ncccn1,> 10 µM
3,O=C(Nc1cccc2cccnc12)c1cnc(Cl)cn1,> 10 µM
4,Cc1cnc(C(=O)Nc2cc(OCCC3CCN(C(=O)OC(C)(C)C)CC3)cc3cccnc23)cn1,9.33 µM
5,Cc1cnc(C(=O)Nc2cc(OCCNC(=O)OC(C)(C)C)cc3cccnc23)cn1,3.67 µM
6,Cc1cnc(C(=O)Nc2cccc3ncccc23)cn1,> 10 µM
7,Cc1cnc(C(=O)Nc2cc(Cl)cc3cccnc23)cn1,5.2 µM
8,Cc1ccc(C(=O)Nc2cccc3cccnc23)cn1,> 10 µM
9,CC(C)(C)OC(=O)N1CCC(CCOc2cc(NC(=O)c3ncccn3)c3ncccc3c2)CC1,> 10 µM
10,O=C(Nc1cc(OCCN2CCCCC2)cc2cccnc12)c1cnccn1,> 10 µM

# System: MIA PaCa-2
# Experiment: Induction of apoptosis in human MIA PaCa-2 cells assessed as early apoptotic cells at 0.1 uM incubated for 24 hrs by Annexin V-FITC/PI staining based flow cytometry analysis (reference value: 5.1%)
# Type: functional
# Conditions: not given
row,Compound,Activity
1,Nc1ccn([C@@H]2O[C@H](CO)[C@@H](O)C2(F)F)c(=O)n1 [GEMCITABINE],16.1%

# System: MIA PaCa-2
# Experiment: Cytotoxicity against human MIA PaCa-2 cells assessed as inhibition of cell growth incubated for 72 hrs by MTT assay
# Type: functional, cell-based
# Conditions: MIA PaCa-2, 72 h
row,Compound,IC50
1,O=C(Nc1cccc2cccnc12)c1cccnn1,8.5 µM
2,O=C(Nc1cc(Cl)cc2cccnc12)c1ncccn1,0.8 µM
3,O=C(Nc1cccc2cccnc12)c1cnc(Cl)cn1,7 µM
4,Cc1cnc(C(=O)Nc2cc(OCCC3CCN(C(=O)OC(C)(C)C)CC3)cc3cccnc23)cn1,9 µM
5,Cc1cnc(C(=O)Nc2cc(OCCNC(=O)OC(C)(C)C)cc3cccnc23)cn1,0.67 µM
6,Cc1cnc(C(=O)Nc2cccc3ncccc23)cn1,> 10 µM
7,Cc1cnc(C(=O)Nc2cc(Cl)cc3cccnc23)cn1,1.5 µM
8,Cc1ccc(C(=O)Nc2cccc3cccnc23)cn1,> 10 µM
9,CC(C)(C)OC(=O)N1CCC(CCOc2cc(NC(=O)c3ncccn3)c3ncccc3c2)CC1,> 10 µM
10,O=C(Nc1cc(OCCN2CCCCC2)cc2cccnc12)c1cnccn1,> 10 µM

# System: MIA PaCa-2
# Experiment: Induction of apoptosis in human MIA PaCa-2 cells assessed as late apoptotic cells at 0.5 uM incubated for 24 hrs by Annexin V-FITC/PI staining based flow cytometry analysis (reference value: 2.04%)
# Type: functional
# Conditions: not given
row,Compound,Activity
1,Nc1ccn([C@@H]2O[C@H](CO)[C@@H](O)C2(F)F)c(=O)n1 [GEMCITABINE],2.8%

# System: MIA PaCa-2
# Experiment: Induction of cell cycle arrest in human MIA PaCa-2 cells assessed as accumulation of cells in G2/M phase at 0.1 uM incubated for 48 hrs by RNase/propidium iodide staining based flow cytometry analysis (reference value: 2.71%)
# Type: functional
# Conditions: not given
row,Compound,Activity
1,Nc1ccn([C@@H]2O[C@H](CO)[C@@H](O)C2(F)F)c(=O)n1 [GEMCITABINE],0%

# System: MIA PaCa-2
# Experiment: Induction of apoptosis in human MIA PaCa-2 cells assessed as live cells at 0.1 uM incubated for 48 hrs by Annexin V-FITC/PI staining based flow cytometry analysis (reference value: 96.3%)
# Type: functional
# Conditions: not given
row,Compound,Activity
1,Nc1ccn([C@@H]2O[C@H](CO)[C@@H](O)C2(F)F)c(=O)n1 [GEMCITABINE],93.7%

# System: MIA PaCa-2
# Experiment: Induction of apoptosis in human MIA PaCa-2 cells assessed as late apoptotic cells at 0.1 uM incubated for 24 hrs by Annexin V-FITC/PI staining based flow cytometry analysis (reference value: 2.04%)
# Type: functional
# Conditions: not given
row,Compound,Activity
1,Nc1ccn([C@@H]2O[C@H](CO)[C@@H](O)C2(F)F)c(=O)n1 [GEMCITABINE],4%

# System: MIA PaCa-2
# Experiment: Induction of apoptosis in human MIA PaCa-2 cells assessed as live cells at 0.5 uM incubated for 24 hrs by Annexin V-FITC/PI staining based flow cytometry analysis (reference value: 90.2%)
# Type: functional
# Conditions: not given
row,Compound,Activity
1,Nc1ccn([C@@H]2O[C@H](CO)[C@@H](O)C2(F)F)c(=O)n1 [GEMCITABINE],87.2%

# System: PANC-1
# Experiment: Cytotoxicity against human PANC-1 cells assessed as inhibition of cell growth incubated for 72 hrs by MTT assay
# Type: functional, cell-based
# Conditions: PANC-1, 72 h
row,Compound,IC50
1,O=C(Nc1cccc2cccnc12)c1cccnn1,> 10 µM
2,O=C(Nc1cc(Cl)cc2cccnc12)c1ncccn1,4.67 µM
3,O=C(Nc1cccc2cccnc12)c1cnc(Cl)cn1,9.3 µM
4,Cc1cnc(C(=O)Nc2cc(OCCC3CCN(C(=O)OC(C)(C)C)CC3)cc3cccnc23)cn1,9.67 µM
5,Cc1cnc(C(=O)Nc2cc(OCCNC(=O)OC(C)(C)C)cc3cccnc23)cn1,2.17 µM
6,Cc1cnc(C(=O)Nc2cccc3ncccc23)cn1,> 10 µM
7,Cc1cnc(C(=O)Nc2cc(Cl)cc3cccnc23)cn1,1.77 µM
8,Cc1ccc(C(=O)Nc2cccc3cccnc23)cn1,> 10 µM
9,CC(C)(C)OC(=O)N1CCC(CCOc2cc(NC(=O)c3ncccn3)c3ncccc3c2)CC1,> 10 µM
10,O=C(Nc1cc(OCCN2CCCCC2)cc2cccnc12)c1cnccn1,> 10 µM
11,Nc1ccn([C@@H]2O[C@H](CO)[C@@H](O)C2(F)F)c(=O)n1 [GEMCITABINE],0.2 µM

# System: MIA PaCa-2
# Experiment: Induction of cell cycle arrest in human MIA PaCa-2 cells assessed as accumulation of cells at S phase at 0.1 uM incubated for 48 hrs by RNase/propidium iodide staining based flow cytometry analysis (Rvb =26.9 %)
# Type: functional
# Conditions: not given
row,Compound,Activity
1,Nc1ccn([C@@H]2O[C@H](CO)[C@@H](O)C2(F)F)c(=O)n1 [GEMCITABINE],89.3%

# System: MIA PaCa-2
# Experiment: Induction of apoptosis in human MIA PaCa-2 cells assessed as necrotic cells at 0.1 uM incubated for 48 hrs by Annexin V-FITC/PI staining based flow cytometry analysis (reference value: 1.07%)
# Type: functional
# Conditions: not given
row,Compound,Activity
1,Nc1ccn([C@@H]2O[C@H](CO)[C@@H](O)C2(F)F)c(=O)n1 [GEMCITABINE],2.1%

# System: not listed separately
# Experiment: Cytotoxicity against human HPDE cells assessed as inhibition of cell growth incubated for 72 hrs by MTT assay
# Type: toxicity, cell-based
# Conditions: not given
row,Compound,IC50 at 72 h
1,Nc1ccn([C@@H]2O[C@H](CO)[C@@H](O)C2(F)F)c(=O)n1 [GEMCITABINE],0.001 µM

# System: MIA PaCa-2
# Experiment: Induction of apoptosis in human MIA PaCa-2 cells assessed as necrotic cells at 0.5 uM incubated for 48 hrs by Annexin V-FITC/PI staining based flow cytometry analysis (reference value: 1.07%)
# Type: functional
# Conditions: not given
row,Compound,Activity
1,Nc1ccn([C@@H]2O[C@H](CO)[C@@H](O)C2(F)F)c(=O)n1 [GEMCITABINE],2.6%

# System: MIA PaCa-2
# Experiment: Induction of cell cycle arrest in human MIA PaCa-2 cells assessed as accumulation of cells in G0/G1 phase at 0.1 uM incubated for 48 hrs by RNase/propidium iodide staining based flow cytometry analysis (reference value: 70.4%)
# Type: functional
# Conditions: not given
row,Compound,Activity
1,Nc1ccn([C@@H]2O[C@H](CO)[C@@H](O)C2(F)F)c(=O)n1 [GEMCITABINE],10.8%

# System: MIA PaCa-2
# Experiment: Induction of apoptosis in human MIA PaCa-2 cells assessed as late apoptotic cells at 0.1 uM incubated for 48 hrs by Annexin V-FITC/PI staining based flow cytometry analysis (reference value: 0.8%)
# Type: functional
# Conditions: not given
row,Compound,Activity
1,Nc1ccn([C@@H]2O[C@H](CO)[C@@H](O)C2(F)F)c(=O)n1 [GEMCITABINE],2.01%

# System: MIA PaCa-2
# Experiment: Induction of apoptosis in human MIA PaCa-2 cells assessed as necrotic cells at 0.1 uM incubated for 24 hrs by Annexin V-FITC/PI staining based flow cytometry analysis (reference value: 2.7%)
# Type: functional
# Conditions: not given
row,Compound,Activity
1,Nc1ccn([C@@H]2O[C@H](CO)[C@@H](O)C2(F)F)c(=O)n1 [GEMCITABINE],0.8%

# System: MIA PaCa-2
# Experiment: Induction of apoptosis in human MIA PaCa-2 cells assessed as early apoptotic cells at 0.5 uM incubated for 48 hrs by Annexin V-FITC/PI staining based flow cytometry analysis (reference value: 1.8%)
# Type: functional
# Conditions: not given
row,Compound,Activity
1,Nc1ccn([C@@H]2O[C@H](CO)[C@@H](O)C2(F)F)c(=O)n1 [GEMCITABINE],5.2%

# System: MIA PaCa-2
# Experiment: Induction of cell cycle arrest in human MIA PaCa-2 cells assessed as accumulation of cells in G0/G1 phase at 0.1 uM incubated for 24 hrs by RNase/propidium iodide staining based flow cytometry analysis (reference value: 64.3%)
# Type: functional
# Conditions: not given
row,Compound,Activity
1,Nc1ccn([C@@H]2O[C@H](CO)[C@@H](O)C2(F)F)c(=O)n1 [GEMCITABINE],21.04%

# System: MIA PaCa-2
# Experiment: Induction of apoptosis in human MIA PaCa-2 cells assessed as early apoptotic cells at 0.1 uM incubated for 48 hrs by Annexin V-FITC/PI staining based flow cytometry analysis (reference value: 1.8%)
# Type: functional
# Conditions: not given
row,Compound,Activity
1,Nc1ccn([C@@H]2O[C@H](CO)[C@@H](O)C2(F)F)c(=O)n1 [GEMCITABINE],2.2%
